# Assay results from US20250090572A1 (priority 2020, published 2025).
# Tests used:
# [1] = test system: Pseudovirus particles containing surface Wuhan-Hu-1 SGP; format: cell-based, SARS-CoV-2
# SARS-CoV-2 spike protein = SARS-CoV-2 spike protein (Severe acute respiratory syndrome coronavirus 2, UniProt P0DTC2); format: binding; conditions: spike protein 50 nM, polysaccharide 1 μM
Substance,IC50 [1] [µg/mL],Binding inhibition (SARS-CoV-2 spike protein; competitive binding inhibition between polysaccharide-spike protein complex and heparin-SPR chip) [%],competition with immobilized heparin for spike protein binding (SARS-CoV-2 spike protein)
heparin,4.6,82 ± 7.5,competed with heparin for spike protein binding
pentosan polysulfate [PPS],1.6,,
